Experimental findings from PMC5514153, “Targeting PTPRZ inhibits stem cell-like properties and tumorigenicity in glioblastoma cells” (Scientific Reports, 2017) are described below.

Assay [1] addresses T1, hPTPRA (Homo sapiens, UniProt P18433).
T1 construct: Recombinant proteins corresponding to the entire intracellular regions (ICRs) of PTPRZ1, PTPRA, and PTPRM; made in house; host or cells: baculovirus-silkworm expression system
Nature of the assay: In vitro PTPase assay (DiFMUP), PTPRA. The note with it: 60-min preincubation. It is filed as biochemical. The method, then: Figure 4 NAZ2329, an allosteric inhibitor of R5 RPTP subfamily members. (A) Structure of NAZ2329. (B) Effect of preincubation of NAZ2329 on its inhibitory activity against PTPRZ. Recombinant human PTPRZ1 enzyme (the whole intracellular region) was premixed with NAZ2329 for the indicated times and followed by addition of a fluorogenic DiFMUP (non-specific PTP substrate, 6,8-difluoro-4-methylumbiliferyl phosphate) to measure PTP inhibitory activity. (C) Time dependence. The PTPRZ1 enzyme was added to the inhibitor–substrate mixture, and the inhibitory activity was determined at each time point relative to the vehicle control. (D) Reversibility of inhibition. […] The mixture was then 20-fold diluted, and recovered PTP activity was expressed as the relative activity compared with the vehicle-treated enzyme. […] PTPRZ1 enzymes were preincubated with NAZ2329 for 60 min, and the PTP activity was measured using DiFMUP. […]
Recombinant proteins corresponding to the entire intracellular regions (ICRs) of PTPRZ1, PTPRA, and PTPRM were expressed using a baculovirus-silkworm expression system, and purified as described. The ICRs of PTPRG, PTPRS, and PTPRB and the catalytic domains of PTPN1 and PTPN6 were expressed as glutathione-S-transferase (GST) fusion proteins from each pGEX plasmid in Escherichia coli strain BL21 (ref. [6]). […]

Assay [2] concerns C6 cells. The assay is described as follows: Sphere formation, SOX2 expression and self-renewal, C6 cells. It is filed as cell-based, rat. The method, then:
Figure 7 Cellular effects of NAZ2329 on the malignant phenotypes of C6 cells. (A) Phosphorylation of paxillin at Tyr-118. C6 cells were incubated with NAZ2329 for the indicated periods. Immunoprecipitated paxillin was analyzed by Western blotting using anti-pY118-paxillin and anti-paxillin. Blots are representative of five independent cultures. […] (B) Cell proliferation assay. C6 cells were incubated for 48 h with NAZ2329 in normal medium containing 2% FBS. […] (C) Boyden chamber assay. Cells were allowed to migrate for 3 h. DAPI-stained nuclei are shown before (total) and after (migrated) the removal of cells remaining in the top chamber. Scale bars, 100 µm. […] (D,E) Sphere formation (D) and SOX2 expression (E). C6 cells were cultured in CSC medium for 7 days with indicated concentrations of NAZ2329. Images are representative of five independent cultures. Scale bars, 100 µm. […] (F) Self-renewal of C6 spheres. C6 spheres were initially developed in CSC medium for 7 days, followed by an incubation with NAZ2329 in CSC medium for 5 days. Images are representative of five independent cultures. Scale bars, 100 µm. […] Full-length blots and gels are presented in Supplementary Fig. S7.
Cells were inoculated at 5 × 10^3 cells per 96-well uncoated polystyrene plate (# 9018, Corning) or 5 × 10^4 cells per 35-mm plastic petri dish (#351008, Corning), and cultured in a serum-free medium containing DMEM/F12 with 1x B27 supplement (#17504044, Thermo Fisher Scientific), EGF (20 ng/ml), and basic fibroblast growth factor (bFGF, 20 ng/ml, #064-05381, Wako pure chemical). After a 7-day culture, cells were fixed with 10% neutral formalin and pictured under a conventional microscope. The number of spheroids of approximately 70 µm in diameter were counted manually using Adobe Photoshop CS6 (Adobe).

Turning to `CCOc1ccc(C(F)(F)F)cc1CSc1ccsc1C(=O)NS(=O)(=O)c1ccccc1` [NAZ2329], the IC50 in assay [1] turned out to be 35.7 µM. Also, in assay [2] (C6 cells, CSC medium, 7 days), the SOX2 expression result was “decrease in SOX2 expression” and the sphere formation result is “dose-dependently inhibited sphere formation”. For the same compound, the “self-renewal of sphere-forming cells” value in assay [2] (C6 spheres, 5 days with compound) is on record as “suppressed self-renewal”.
